Measured values from ChEMBL document CHEMBL1146723, “Synthesis of benzophenone oxime analogues as inhibitor of secretory phospholipase A(2) with anti-inflammatory activity” (2004).
Several values for one entry are separate records, joined by “and”; a condition that tells them apart may be missing. Equal values may be shown once. Activity calls are given as the source filed them. The calls are words filed in the database; no cut-off is given here.

Assays:
[1] = biological target: Phospholipase A2, major isoenzyme (Sus scrofa) (UniProt P00592); assay: (§1) Percentage inhibitory activity against Phospholipase A2 isolated from venom of Vipera russelli; details: Daboia russellii; concentration not given here
Chain of Phospholipase A2, major isoenzyme (Sus scrofa) (P00592 23-146 limits assumed): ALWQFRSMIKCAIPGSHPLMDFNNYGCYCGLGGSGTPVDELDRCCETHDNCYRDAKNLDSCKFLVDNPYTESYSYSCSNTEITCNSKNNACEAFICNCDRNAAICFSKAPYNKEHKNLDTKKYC

Mus musculus = assay: Antiinflammatory activity was evaluated for the increase in weight due to edema was calculated as edema ratio; type: functional
[2] = biological target: Phospholipase A2, major isoenzyme (Sus scrofa) (UniProt P00592); assay: (§2) Percentage inhibitory activity against Phospholipase A2 isolated from venom of Naja naja; details: concentration not given here
[3] = biological target: Phospholipase A2, major isoenzyme (Sus scrofa) (UniProt P00592); assay: (§3) Percentage inhibitory activity against Phospholipase A2 isolated from venom of Trimeresurus malabaricus; details: concentration not given here
Daboia russellii = assay: as §1; details: concentration not given here
Naja naja = assay: as §2; details: concentration not given here
Trimeresurus malabaricus [4] = assay: as §3; details: concentration not given here
Trimeresurus malabaricus [5] = assay: Percentage inhibitory activity against Phospholipase A2 isolated from venom of Trimeresurus malabaricus; NI = No inhibition

| SMILES | inhibition [1] [%] | Edema ratio (Mus musculus) | inhibition [2] [%] | inhibition [3] [%] | inhibition (Daboia russellii) [%] | inhibition (Naja naja) [%] | inhibition (Trimeresurus malabaricus [4]) [%] | inhibition (Trimeresurus malabaricus [5]) |
| --- | --- | --- | --- | --- | --- | --- | --- | --- |
| COc1ccc(/C(=N/O)c2cccc(Cl)c2)cc1OC | 85.3 | 101 and 109 and 105 and 106 and 107 | 90.2 | 72.4 | – | – | – | – |
| Cc1cccc(/C(=N/O)c2ccccc2)c1 | – | 102 and 110 and 101 and 103 and 109 | – | – | 79.2 | 82.9 | 81.6 | – |
| COc1ccc(/C(=N/O)c2ccccc2)cc1 | – | 180 and 142 and 183 and 147 and 151 | – | – | 29.9 | 42.4 | – | inactive |
| COc1cccc(C(=NO)c2cccc(OC)c2)c1 | – | 136 and 142 and 181 and 147 and 149 | – | – | 58.7 | 36.9 | – | inactive |
